Here are results for 16 compounds from patent US9365551B2, “2-(benzyloxy) benzamides as LRRK2 kinase inhibitors” (Glaxo Group Limited, priority 2010, dated 2016).

Where a name gives a salt, the structure may show the parent alone. A value given as a limit tells only on which side of the number the result lay.

In experiment [1] the target is T1, 6His-Tev-LRRK2 (1326-2527) (Homo sapiens, UniProt Q5S007).
T1 construct: A LRRK2 cDNA encoding residues 1326-2527 was received from Dundee University; made in house; host or cells: Spodoptera frugiperda (Sf9) insect cells, baculovirus (pFB-HTb)
T1 sequence (Q5S007 1326-2527): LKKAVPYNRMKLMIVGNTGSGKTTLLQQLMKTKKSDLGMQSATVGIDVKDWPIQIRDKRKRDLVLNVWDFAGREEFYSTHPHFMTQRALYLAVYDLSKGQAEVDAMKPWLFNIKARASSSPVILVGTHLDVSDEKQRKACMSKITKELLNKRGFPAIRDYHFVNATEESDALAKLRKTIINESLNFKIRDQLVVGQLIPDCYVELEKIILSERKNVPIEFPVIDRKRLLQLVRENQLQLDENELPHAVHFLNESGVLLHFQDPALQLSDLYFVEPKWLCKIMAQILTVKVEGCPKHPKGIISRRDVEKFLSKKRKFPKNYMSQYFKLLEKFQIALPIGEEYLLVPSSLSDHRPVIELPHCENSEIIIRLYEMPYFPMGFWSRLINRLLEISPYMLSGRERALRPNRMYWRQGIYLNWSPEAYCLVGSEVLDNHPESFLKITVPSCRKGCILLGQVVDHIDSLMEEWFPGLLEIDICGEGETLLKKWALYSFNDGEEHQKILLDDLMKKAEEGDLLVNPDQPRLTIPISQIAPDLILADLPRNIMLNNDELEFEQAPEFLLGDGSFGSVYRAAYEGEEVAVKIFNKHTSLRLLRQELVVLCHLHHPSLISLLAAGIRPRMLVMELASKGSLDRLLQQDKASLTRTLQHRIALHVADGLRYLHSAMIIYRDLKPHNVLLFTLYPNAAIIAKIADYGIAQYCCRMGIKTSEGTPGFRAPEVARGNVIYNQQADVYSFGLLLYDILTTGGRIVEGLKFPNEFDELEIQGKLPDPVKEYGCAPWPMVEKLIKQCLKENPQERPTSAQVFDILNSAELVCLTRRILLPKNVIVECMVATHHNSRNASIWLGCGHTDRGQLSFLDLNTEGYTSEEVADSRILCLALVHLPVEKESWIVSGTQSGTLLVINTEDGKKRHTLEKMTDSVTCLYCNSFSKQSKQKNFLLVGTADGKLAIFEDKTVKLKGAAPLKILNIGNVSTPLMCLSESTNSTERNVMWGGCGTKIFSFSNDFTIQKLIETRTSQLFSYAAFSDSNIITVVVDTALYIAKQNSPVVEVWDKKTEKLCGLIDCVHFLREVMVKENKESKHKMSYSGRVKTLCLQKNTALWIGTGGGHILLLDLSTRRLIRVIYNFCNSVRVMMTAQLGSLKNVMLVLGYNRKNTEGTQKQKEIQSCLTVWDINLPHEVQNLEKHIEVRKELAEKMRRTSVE
Kind of experiment: LRRK2 peptide substrate assay. The conditions noted are these: mean pIC50 of multiple test results. Type of experiment: biochemical. The procedure: (§1) Compounds of formula (I) may be tested for in vitro kinase activity in accordance with the following assays, using the non natural, in vitro, substrates moesin and the Longer Biotin-LRRKtide. Moesin and a shorter version of the peptide were identified as substrates in Jaleel et al. (2007, Biochem J, 405: 307-317).
LRRK2 Peptide Substrate Assay
a) 100 nl of a 1:4 serial dilution of test compound with a top final assay concentration of 30 μM is added to certain wells in a low volume 384 well black plate. 100 nl of DMSO is used in certain wells as controls.
(§2) b) 3 μl enzyme solution (80 nM purified recombinant 6His-Tev-LRRK2 (1326-2527) in assay buffer: 50 mM Hepes (pH 7.2), 10 mM MgCl2, 150 mM NaCl, 5% glycerol, 0.0025% triton X-100 and 1 mM DTT) is added to certain wells. 3 μl assay buffer is added to certain wells as a 100% inhibition (no enzyme) control. c) After incubation at room temperature for 30 minutes, 3 μl substrate solution (2 μM Biotin-LRRKtide peptide substrate and ATP at Km in assay buffer) is added to each well. Plates are then incubated for a further 1-2 hours at room temperature (incubation time varies depending upon rate and linearity of reaction with differing enzyme batches). d) 6 μl detection solution (50 nM Streptavidin SureLight® APC (PerkinElmer), 4 nM Eu-W1024 labelled anti-rabbit IgG antibody (PerkinElmer), 1:500 dilution (dilution determined on a batch to batch basis) of Phospho-Ezrin (Thr567)/Radixin (Thr564)/Moesin (Thr558) Polyclonal Antibody (New England Biolabs) and 60 mM EDTA in buffer: 40 mM Hepes (pH 7.2), 150 mM NaCl, 0.03% BSA) is added to each well. Plates are then incubated for a further 2 hours at room temperature before reading on a suitable plate reader (Excitation 330 nm, emission 620 nm (Eu) and 665 nm (APC)). Data is analysed using ActivityBase software (IDBS). LRRK2 AlphaScreen Desensitised Protein Substrate Assay a) 100 nl of a 1:4 serial dilution of test compound with a top final assay concentration of 30 μM is added to certain wells in a low volume 384 well black plate. 100 nl of DMSO is used in certain wells as controls. b) 3 μl enzyme solution (80 nM purified recombinant 6His-Tev-LRRK2 (1326-2527) in assay buffer: 50 mM Hepes (pH 7.2), 10 mM MgCl2, 150 mM NaCl, 5% glycerol, 0.0025% triton X-100 and 1 mM DTT) is added to certain wells. 3 μl assay buffer is added to certain wells as a 100% inhibition (no enzyme) control. c) After incubation at room temperature for 30 minutes, 3 μl substrate solution (200 nM GST-PS-Moesin (400-577) and 2 mM ATP in assay buffer) is added to each well. Plates are then incubated for 20 minutes at room temperature. d) 6 μl detection solution (1:250 dilution of AlphaLisa Protein A Acceptor beads (PerkinElmer), 1:64 dilution of AlphaLisa Gluthathione Donor beads (PerkinElmer) and 1:600 dilution (dilution determined on a batch to batch basis) of Phospho-Ezrin (Thr567)/Radixin (Thr564)/Moesin (Thr558) Polyclonal Antibody (New England Biolabs) in a buffer: 50 mM Hepes (pH 7.5), 250 mM NaCl, 60 mM EDTA, 1% PEG and 0.01% Brij 35) is added to each well. Plates are then incubated for a further 2 hours at room temperature in the dark before reading on an EnVision™ plate reader with AlphaScreen HTS turbo option module and AlphaScreen settings. Data is analysed using ActivityBase software (IDBS). Pharmacological Data

Experiment [2] concerns the target T1, 6His-Tev-LRRK2 (1326-2527). Kind of experiment: LRRK2 AlphaScreen desensitised protein substrate assay. Particulars: mean pIC50 of multiple test results. Type of experiment: biochemical. The procedure:
as §1, §2
For orientation: In Alpha technology, singlet oxygen from a donor bead excites a nearby acceptor bead.

[3] abbreviates: stated as threshold, read-out: pIC50 in the LRRK2 peptide substrate assay (bounds) (converted).
[4] abbreviates: stated as threshold, read-out: pIC50 in the LRRK2 alphascreen desensitised protein substrate assay (bounds) (converted).
Where [5] appears, read: Biotin-LRRKtide peptide substrate, ATP at Km, read-out: LRRK2 peptide substrate assay (pIC50) (converted).
The mark [6] stands for this setting: GST-PS-Moesin (400-577) substrate, 2 mM ATP, read-out: LRRK2 alphascreen desensitized protein substrate assay (pIC50) (converted).

In the case of `O=C(Nc1ccnnc1)c1cc(Br)c(CN2CCOCC2)cc1OCc1ccccc1` [Example 1, 5-Bromo-4-(4-morpholinylmethyl)-2-[(phenylmethyl)oxy]-N-4-pyridazinylbenzamide], the IC50 in experiment [1] (setting [3]) was no more than 100 nM; in experiment [2] (setting [4]), no more than 25100 nM.
In the case of `O=C(Nc1cccnc1)c1cc(Br)c(CN2CCOCC2)cc1OCc1ccccc1` [Example 2, 5-Bromo-4-(4-morpholinylmethyl)-2-[(phenylmethyl)oxy]-N-3-pyridinylbenzamide], the IC50 in experiment [1] (setting [5]) was 10 nM; in experiment [1] (setting [3]) it was no more than 10 nM; in experiment [2] (setting [6]) it was 251 nM; in experiment [2] (setting [4]) it was no more than 316 nM.
For the compound `Cn1cc(-c2cc(C(=O)Nc3ccnnc3)c(OCc3ccccc3)cc2CN2CCOCC2)cn1` [Example 3, 5-(1-Methyl-1H-pyrazol-4-yl)-4-(4-morpholinylmethyl)-2-[(phenylmethyl)oxy]-N-4-pyridazinylbenzamide], the IC50 in experiment [1] (setting [3]) was no more than 100 nM; in experiment [2] (setting [4]), no more than 25100 nM.
`Cn1cc(-c2cc(C(=O)Nc3cccnc3)c(OCc3ccccc3)cc2CN2CCOCC2)cn1` [Example 4, 5-(1-Methyl-1H-pyrazol-4-yl)-4-(4-morpholinylmethyl)-2-[(phenylmethyl)oxy]-N-3-pyridinylbenzamide]: the IC50 in experiment [1] (setting [5]) is 15.8 nM; in experiment [1] (setting [3]), no more than 100 nM; in experiment [2] (setting [6]), 126 nM; in experiment [2] (setting [4]), no more than 316 nM.
Take `Cc1cc(OCc2ccccc2)c(C(=O)Nc2ccnnc2)cc1Br` [Example 5, 5-Bromo-4-methyl-2-[(phenylmethyl)oxy]-N-4-pyridazinyl benzamide]: the IC50 in experiment [1] (setting [3]) was no more than 10 nM; in experiment [2] (setting [4]), no more than 316 nM.
`Cc1cc(OCc2ccccc2)c(C(=O)Nc2cccnc2)cc1Br` [Example 6, 5-Bromo-4-methyl-2-[(phenylmethyl)oxy]-N-3-pyridinylbenzamide]: the IC50 in experiment [1] (setting [3]) is no more than 10 nM; in experiment [2] (setting [4]), no more than 316 nM.
For `Cc1cc(OCc2ccccc2)c(C(=O)Nc2cccnc2)cc1-c1cnn(C)c1` [Example 7, 4-Methyl-5-(1-methyl-1H-pyrazol-4-yl)-2-[(phenylmethyl)oxy]-N-3-pyridinylbenzamide], the IC50 in experiment [1] (setting [5]) is 15.8 nM; in experiment [1] (setting [3]), no more than 100 nM; in experiment [2] (setting [6]) it was 158 nM; in experiment [2] (setting [4]), no more than 316 nM.
For the compound `Cc1cc(OCc2ccccc2)c(C(=O)Nc2ccnnc2)cc1-c1cnn(C)c1` [Example 8, 4-Methyl-5-(1-methyl-1H-pyrazol-4-yl)-2-[(phenylmethyl)oxy]-N-4-pyridazinylbenzamide], the IC50 was no more than 100 nM in experiment [1] (setting [3]) and no more than 25100 nM in experiment [2] (setting [4]).
Take `Cc1cc(C(=O)Nc2cccnc2)c(OCc2ccccc2)cc1Br` [Example 9, 4-Bromo-5-methyl-2-[(phenylmethyl)oxy]-N-3-pyridinylbenzamide]: the IC50 in experiment [1] (setting [5]) was 10 nM; in experiment [1] (setting [3]), no more than 10 nM; in experiment [2] (setting [6]), 126 nM; in experiment [2] (setting [4]), no more than 316 nM.
The like results for `Cc1cc(C(=O)Nc2ccnnc2)c(OCc2ccccc2)cc1Br` [Example 10, 4-Bromo-5-methyl-2-[(phenylmethyl)oxy]-N-4-pyridazinylbenzamide] were, in that order, 6.31 nM, no more than 10 nM, 100 nM and no more than 316 nM.
As to `Cc1cc(C(=O)Nc2cccnc2)c(OCc2ccccc2)cc1-c1cnn(C)c1` [Example 11, 5-Methyl-4-(1-methyl-1H-pyrazol-4-yl)-2-[(phenylmethyl)oxy]-N-3-pyridinylbenzamide], the IC50 in experiment [1] (setting [5]) is 7.94 nM; in experiment [1] (setting [3]), no more than 10 nM; in experiment [2] (setting [6]), 50.1 nM; in experiment [2] (setting [4]), no more than 316 nM.
As to `Cc1cc(C(=O)Nc2ccnnc2)c(OCc2ccccc2)cc1-c1cnn(C)c1` [Example 12, 5-Methyl-4-(1-methyl-1H-pyrazol-4-yl)-2-[(phenylmethyl)oxy]-N-4-pyridazinylbenzamide], the IC50 was 10 nM in experiment [1] (setting [5]), no more than 10 nM in experiment [1] (setting [3]), 100 nM in experiment [2] (setting [6]) and no more than 316 nM in experiment [2] (setting [4]).
In the case of `Cn1cc(-c2cc(OCc3ccc(F)cc3)c(C(=O)Nc3cccnc3)cc2CN2CCOCC2)cn1` [Example 13, 2-{[(4-Fluorophenyl)methyl]oxy}-4-(1-methyl-1H-pyrazol-4-yl)-5-(4-morpholinylmethyl)-N-3-pyridinylbenzamide], the IC50 in experiment [1] (setting [5]) was 79.4 nM; in experiment [1] (setting [3]), no more than 100 nM; in experiment [2] (setting [6]), 794 nM; in experiment [2] (setting [4]), no more than 25100 nM.
Regarding `Cn1cc(-c2cc(C(=O)Nc3cccc(Cl)c3)c(OCc3ccccc3)cc2CN2CCOCC2)cn1` [Example 50, 2-(benzyloxy)-N-(3-chlorophenyl)-5-(1-methyl-1H-pyrazol-4-yl)-4-(morpholinomethyl)benzamide, Hydrochloride], the IC50 in experiment [1] (setting [3]) was no more than 100 nM.
Consider `Cn1cc(-c2cc(C(=O)Nc3cccc(Cl)c3)c(OCc3ccccc3)cc2CN2CCOCC2)cn1` [Example 51, 2-(benzyloxy)-N-(3-chlorophenyl)-5-(1-methyl-1H-pyrazol-4-yl)-4-(morpholinomethyl)benzamide, Maleic acid salt], for which the IC50 in experiment [1] (setting [3]) was no more than 100 nM.
The same measure, in the same setting: the figure for `CN1CCN(C(=O)c2cc(OCc3ccccc3)c(C(=O)Nc3cccnc3)cc2Cl)CC1` [Example 54, 2-(benzyloxy)-5-chloro-4-(4-methylpiperazine-1-carbonyl)-N-(pyridin-3-yl)benzamide] is no more than 100 nM.
